Calls of active or inactive are those of the source. No cut-off for these calls is given here. Residues, ends and D or L forms follow the SMILES beside them.

One test concerns Plasma. The test can be described thus: Anticoagulant activity in human citreated plasma assessed as prolongation of fibrinogen clotting time. The format is functional, cell-free.
The species entered for test [1] is Homo sapiens. The test can be described thus: Inhibition of amidolytic activity of human alpha-thrombin upto 24 hrs by RP-HPLC.
Test [2] is filed under the species Homo sapiens. The test can be described thus: Inhibition of amidolytic activity of human alpha-thrombin after 60 mins by RP-HPLC.
Test [3] addresses Plasma kallikrein (Homo sapiens) (UniProt P03952). The test is described as follows: Inhibition of human kallikrein at 1 uM.
For test [4], the target named is Vitamin K-dependent protein C (Homo sapiens) (UniProt P04070). The test is described as follows: Inhibition of human Activated protein C at 1 uM.
The species named for test [5] is Homo sapiens. The test can be described thus: Inhibition of human alpha-thrombin at 1 uM.
Test [6] deals with Plasminogen (Homo sapiens) (UniProt P00747). The test is described as follows: Inhibition of human plasmin at 1 uM.
For test [7], the species on record is Homo sapiens. The test is described as follows: Inhibition of human chymotrypsin at 1 uM.
In test [8] the target is T1, Trypsin (Homo sapiens) (UniProt P07477+P07478+P35030). The test can be described thus: Inhibition of human trypsin at 100 uM. Format: protein assay.
In test [9] the target is Coagulation factor XI (Homo sapiens) (UniProt P03951). The test can be described thus: Inhibition of human factor 11a at 100 uM.
Test [10] has as its target Urokinase-type plasminogen activator (Homo sapiens) (UniProt P00749). The test is described as follows: Inhibition of human urokinase at 1 uM.
Test [11] addresses Coagulation factor X (Homo sapiens) (UniProt P00742). The test can be described thus: Inhibition of human factor 10a at 1 uM.
Test [12] addresses Tissue-type plasminogen activator (Homo sapiens) (UniProt P00750). The test can be described thus: Inhibition of human tissue plasminogen activator at 1 uM.
Test [13] has as its target Coagulation factor XI (Homo sapiens) (UniProt P03951). The test is described as follows: Inhibition of human factor 11a at 1 uM.
The target of test [14] is T2, Coagulation factor XII (Homo sapiens) (UniProt P00748).
T2 sequence (whole entry): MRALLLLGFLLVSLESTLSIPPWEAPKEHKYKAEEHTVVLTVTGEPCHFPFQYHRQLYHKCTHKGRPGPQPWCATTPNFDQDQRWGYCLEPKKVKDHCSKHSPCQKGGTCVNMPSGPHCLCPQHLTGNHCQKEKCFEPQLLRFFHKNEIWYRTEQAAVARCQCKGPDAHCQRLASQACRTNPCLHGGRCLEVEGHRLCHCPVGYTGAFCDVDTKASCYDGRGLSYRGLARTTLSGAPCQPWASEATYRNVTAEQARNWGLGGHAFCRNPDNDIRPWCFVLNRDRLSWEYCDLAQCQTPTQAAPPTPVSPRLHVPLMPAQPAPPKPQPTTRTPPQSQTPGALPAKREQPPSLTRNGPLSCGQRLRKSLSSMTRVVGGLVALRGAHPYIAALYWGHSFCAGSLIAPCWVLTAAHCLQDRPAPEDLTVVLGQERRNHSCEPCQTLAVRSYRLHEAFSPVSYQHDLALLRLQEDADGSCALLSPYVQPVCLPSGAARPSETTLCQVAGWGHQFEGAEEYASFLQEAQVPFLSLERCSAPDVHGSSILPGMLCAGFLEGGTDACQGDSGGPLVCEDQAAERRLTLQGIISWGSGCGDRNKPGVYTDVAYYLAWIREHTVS
The test can be described thus: Inhibition of human factor 12a at 1 uM.

The target in test [15] is T1, Trypsin (Homo sapiens). The test can be described thus: Inhibition of human trypsin at 1 uM. Format: protein assay.
The target in test [16] is Plasminogen (Homo sapiens) (UniProt P00747). The test is described as follows: Inhibition of human plasmin at 100 uM.
Test [17] addresses Coagulation factor IX (Homo sapiens) (UniProt P00740). The test is described as follows: Inhibition of human factor 9a at 1 uM.
Test [18] addresses T3, Coagulation factor VII (Homo sapiens) (UniProt P08709).
T3 sequence (whole entry): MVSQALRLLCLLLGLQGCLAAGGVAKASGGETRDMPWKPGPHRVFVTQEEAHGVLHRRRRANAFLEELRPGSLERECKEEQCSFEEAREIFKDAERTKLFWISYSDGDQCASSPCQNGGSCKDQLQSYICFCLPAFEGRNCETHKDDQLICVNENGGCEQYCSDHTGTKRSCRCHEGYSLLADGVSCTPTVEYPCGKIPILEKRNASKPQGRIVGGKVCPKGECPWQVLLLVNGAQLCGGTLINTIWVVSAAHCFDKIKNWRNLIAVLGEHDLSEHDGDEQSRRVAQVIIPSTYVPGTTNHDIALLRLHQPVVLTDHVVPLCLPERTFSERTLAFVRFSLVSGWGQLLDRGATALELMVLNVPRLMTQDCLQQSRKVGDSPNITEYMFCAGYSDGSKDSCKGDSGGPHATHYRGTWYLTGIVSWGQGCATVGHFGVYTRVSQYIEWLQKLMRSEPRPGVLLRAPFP
The test is described as follows: Inhibition of human factor 7a at 1 uM.

Plasminogen (Homo sapiens), sequence (P00747 97-580 limits assumed): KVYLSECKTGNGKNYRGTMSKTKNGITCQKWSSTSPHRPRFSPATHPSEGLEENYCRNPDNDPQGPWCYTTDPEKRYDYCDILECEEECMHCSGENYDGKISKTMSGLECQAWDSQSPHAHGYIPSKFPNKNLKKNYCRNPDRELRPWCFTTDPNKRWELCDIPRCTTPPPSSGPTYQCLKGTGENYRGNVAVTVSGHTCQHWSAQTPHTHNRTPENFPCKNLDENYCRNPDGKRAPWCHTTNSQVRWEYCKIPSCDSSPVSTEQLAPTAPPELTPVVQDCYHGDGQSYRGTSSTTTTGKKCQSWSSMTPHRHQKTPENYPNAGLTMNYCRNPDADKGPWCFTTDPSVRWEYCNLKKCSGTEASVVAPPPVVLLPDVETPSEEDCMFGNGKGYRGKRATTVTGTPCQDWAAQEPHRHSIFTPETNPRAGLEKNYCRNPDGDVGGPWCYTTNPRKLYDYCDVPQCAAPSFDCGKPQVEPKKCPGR
Plasminogen (Homo sapiens), sequence (P00747 581-810 limits assumed): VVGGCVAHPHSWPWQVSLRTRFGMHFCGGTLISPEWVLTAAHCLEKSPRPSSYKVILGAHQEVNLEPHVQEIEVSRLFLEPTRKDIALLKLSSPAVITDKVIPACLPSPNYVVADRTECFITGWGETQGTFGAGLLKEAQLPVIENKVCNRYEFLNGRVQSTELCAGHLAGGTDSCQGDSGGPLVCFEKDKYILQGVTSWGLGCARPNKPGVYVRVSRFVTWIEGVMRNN
Coagulation factor XI (Homo sapiens), sequence (P03951 19-387 limits assumed): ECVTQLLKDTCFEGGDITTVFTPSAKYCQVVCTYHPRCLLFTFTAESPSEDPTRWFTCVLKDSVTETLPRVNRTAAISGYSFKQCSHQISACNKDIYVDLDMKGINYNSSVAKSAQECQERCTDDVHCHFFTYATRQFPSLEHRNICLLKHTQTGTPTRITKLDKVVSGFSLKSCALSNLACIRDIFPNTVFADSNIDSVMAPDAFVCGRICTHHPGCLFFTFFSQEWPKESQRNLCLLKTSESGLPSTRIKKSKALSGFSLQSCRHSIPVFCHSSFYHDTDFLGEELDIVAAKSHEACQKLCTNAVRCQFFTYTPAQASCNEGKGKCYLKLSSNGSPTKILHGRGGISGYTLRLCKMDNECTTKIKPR
Coagulation factor XI (Homo sapiens), sequence (P03951 388-625 limits assumed): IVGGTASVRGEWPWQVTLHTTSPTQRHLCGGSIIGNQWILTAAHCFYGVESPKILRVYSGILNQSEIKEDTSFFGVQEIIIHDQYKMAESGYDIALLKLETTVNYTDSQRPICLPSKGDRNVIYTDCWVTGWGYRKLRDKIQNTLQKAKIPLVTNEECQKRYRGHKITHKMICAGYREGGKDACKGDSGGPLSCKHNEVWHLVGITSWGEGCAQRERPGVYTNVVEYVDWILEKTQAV
Coagulation factor IX (Homo sapiens), sequence (P00740 47-191 limits assumed): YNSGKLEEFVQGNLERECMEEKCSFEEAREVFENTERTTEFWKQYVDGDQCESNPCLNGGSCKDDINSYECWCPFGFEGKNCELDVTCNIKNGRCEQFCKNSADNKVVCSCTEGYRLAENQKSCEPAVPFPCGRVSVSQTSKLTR
Coagulation factor IX (Homo sapiens), sequence (P00740 227-461 limits assumed): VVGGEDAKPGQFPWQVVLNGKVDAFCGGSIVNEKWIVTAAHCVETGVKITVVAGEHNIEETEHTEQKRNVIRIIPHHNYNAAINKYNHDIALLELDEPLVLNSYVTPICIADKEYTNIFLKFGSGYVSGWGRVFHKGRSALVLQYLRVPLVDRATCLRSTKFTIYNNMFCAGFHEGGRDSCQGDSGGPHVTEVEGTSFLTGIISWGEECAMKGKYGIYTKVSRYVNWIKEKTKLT
Tissue-type plasminogen activator (Homo sapiens), sequence (P00750 36-562 limits assumed): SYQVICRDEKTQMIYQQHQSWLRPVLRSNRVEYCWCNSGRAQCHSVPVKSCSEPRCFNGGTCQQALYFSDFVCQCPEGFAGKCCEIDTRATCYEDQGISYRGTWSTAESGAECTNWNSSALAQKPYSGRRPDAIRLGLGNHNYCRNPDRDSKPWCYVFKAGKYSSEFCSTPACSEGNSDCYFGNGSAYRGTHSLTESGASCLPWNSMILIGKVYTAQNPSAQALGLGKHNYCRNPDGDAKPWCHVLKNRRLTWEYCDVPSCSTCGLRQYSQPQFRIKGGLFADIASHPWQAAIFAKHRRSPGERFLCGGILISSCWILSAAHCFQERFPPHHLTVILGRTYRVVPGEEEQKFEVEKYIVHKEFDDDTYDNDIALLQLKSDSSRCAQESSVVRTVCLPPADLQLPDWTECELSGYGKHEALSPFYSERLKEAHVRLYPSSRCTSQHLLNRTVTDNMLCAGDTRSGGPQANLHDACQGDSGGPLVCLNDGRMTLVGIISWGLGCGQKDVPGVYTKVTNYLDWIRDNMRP
Coagulation factor X (Homo sapiens), sequence (P00742 41-179 limits assumed): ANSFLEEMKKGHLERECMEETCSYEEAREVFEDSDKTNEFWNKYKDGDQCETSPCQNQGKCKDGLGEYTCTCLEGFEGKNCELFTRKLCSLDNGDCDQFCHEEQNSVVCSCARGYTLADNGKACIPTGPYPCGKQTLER
Coagulation factor X (Homo sapiens), sequence (P00742 235-488 limits assumed): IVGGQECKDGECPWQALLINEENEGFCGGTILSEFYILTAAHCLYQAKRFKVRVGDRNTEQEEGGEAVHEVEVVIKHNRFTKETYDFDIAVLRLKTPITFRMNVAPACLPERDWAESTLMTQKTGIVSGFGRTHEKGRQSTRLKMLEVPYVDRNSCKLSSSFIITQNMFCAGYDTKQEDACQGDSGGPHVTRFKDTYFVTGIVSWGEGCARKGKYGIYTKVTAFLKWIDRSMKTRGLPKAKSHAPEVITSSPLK
Plasma kallikrein (Homo sapiens), sequence (P03952 20-390 limits assumed): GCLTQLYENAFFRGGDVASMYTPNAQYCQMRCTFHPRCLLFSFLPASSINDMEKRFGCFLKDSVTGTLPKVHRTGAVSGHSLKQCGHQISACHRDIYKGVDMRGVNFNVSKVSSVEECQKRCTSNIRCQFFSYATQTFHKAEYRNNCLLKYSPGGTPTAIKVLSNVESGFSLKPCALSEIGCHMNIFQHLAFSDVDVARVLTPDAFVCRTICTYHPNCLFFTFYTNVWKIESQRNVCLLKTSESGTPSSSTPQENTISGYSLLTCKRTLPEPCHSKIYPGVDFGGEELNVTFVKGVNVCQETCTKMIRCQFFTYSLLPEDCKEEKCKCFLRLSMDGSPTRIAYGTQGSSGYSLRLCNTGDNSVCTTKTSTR
Plasma kallikrein (Homo sapiens), sequence (P03952 391-638 limits assumed): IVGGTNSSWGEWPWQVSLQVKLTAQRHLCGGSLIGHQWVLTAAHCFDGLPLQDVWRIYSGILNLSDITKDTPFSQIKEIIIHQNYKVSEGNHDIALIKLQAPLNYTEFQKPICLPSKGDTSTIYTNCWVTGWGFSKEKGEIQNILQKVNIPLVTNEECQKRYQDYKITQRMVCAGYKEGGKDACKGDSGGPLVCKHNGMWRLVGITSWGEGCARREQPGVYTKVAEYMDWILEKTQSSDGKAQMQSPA
Vitamin K-dependent protein C (Homo sapiens), sequence (P04070 43-197 limits assumed): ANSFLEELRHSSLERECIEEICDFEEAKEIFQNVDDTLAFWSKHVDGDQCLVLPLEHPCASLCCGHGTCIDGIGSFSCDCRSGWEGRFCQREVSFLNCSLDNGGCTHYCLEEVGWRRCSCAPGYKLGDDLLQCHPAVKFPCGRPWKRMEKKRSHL
Vitamin K-dependent protein C (Homo sapiens), sequence (P04070 212-461 limits assumed): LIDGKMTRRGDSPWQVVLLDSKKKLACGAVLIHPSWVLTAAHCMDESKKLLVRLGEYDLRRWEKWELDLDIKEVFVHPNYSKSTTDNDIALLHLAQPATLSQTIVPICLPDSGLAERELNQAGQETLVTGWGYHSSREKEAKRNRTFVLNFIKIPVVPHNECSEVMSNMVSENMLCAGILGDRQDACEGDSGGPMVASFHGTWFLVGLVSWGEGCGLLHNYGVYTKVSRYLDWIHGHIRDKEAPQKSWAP

For `CC[C@H](C)[C@H](NC(=O)[C@H](C)NC(=O)[C@H](CCC(=O)O)NC(=O)[C@H](Cc1ccccc1)NC(=O)[C@H](CC(=O)O)NC(=O)[C@H](Cc1ccccc1)NC(=O)[C@@H]1CCCN1C(=O)[C@@H]1CCCN1C(=O)[C@H](C)N)C(=O)N1CCC[C@H]1C(=O)N[C@@H](CCC(=O)O)C(=O)N[C@@H](CCC(=O)O)C(=O)N[C@@H](Cc1ccc(O)cc1)C(=O)N[C@@H](CC(C)C)C(=O)N[C@@H](CC(=O)O)C(=O)N[C@@H](CC(=O)O)C(=O)N[C@@H](CCC(=O)O)C(=O)N[C@@H](CO)C(=O)O` (H-APPFDFEAIPEEYLDDES-OH), in the test on Plasma, the Activity entry is “Dose-dependent effect”.

Consider `CC[C@H](C)[C@H](NC(=O)[C@H](C)NC(=O)[C@H](CCC(=O)O)NC(=O)[C@H](Cc1ccccc1)NC(=O)[C@H](CC(=O)O)NC(=O)[C@H](Cc1ccccc1)NC(=O)[C@@H]1CCCN1C(=O)[C@@H]1CCCN1C(=O)[C@H](C)NC(=O)[C@@H](NC(=O)[C@H](CCCCN)NC(=O)[C@H](Cc1cnc[nH]1)NC(=O)[C@H](CCSC)NC(=O)[C@H](CCCCN)NC(=O)[C@@H]1CCCN1C(=O)[C@@H](N)CCC(=O)O)[C@@H](C)O)C(=O)N1CCC[C@H]1C(=O)N[C@@H](CCC(=O)O)C(=O)N[C@@H](CCC(=O)O)C(=O)N[C@@H](Cc1ccc(O)cc1)C(=O)N[C@@H](CC(C)C)C(=O)N[C@@H](CC(=O)O)C(=O)N[C@@H](CC(=O)O)C(=O)N[C@@H](CCC(=O)O)C(=O)N[C@@H](CO)C(=O)O`, for which the result in the test filed under Homo sapiens [1] was inactive. For the same compound, the Activity entry with Plasma is “Dose-dependent effect”. Further, the outcome in the test listed under Homo sapiens [2] was Active.

Regarding `CC[C@H](C)[C@H](NC(=O)[C@H](C)NC(=O)[C@H](CCC(=O)O)NC(=O)[C@H](Cc1ccccc1)NC(=O)[C@H](CC(=O)O)NC(=O)[C@H](Cc1ccccc1)NC(=O)[C@@H]1CCCN1C(=O)[C@@H]1CCCN1C(=O)[C@H](C)NC(=O)[C@@H](NC(=O)[C@H](CCCCN)NC(=O)[C@H](Cc1cnc[nH]1)NC(=O)[C@H](CCSC)NC(=O)[C@H](CCCCN)NC(=O)[C@@H]1CCCN1C(=O)[C@H](CCC(=O)O)NC(=O)[C@H](C)NC(=O)[C@@H](NC(=O)[C@H](CC(=O)O)NC(=O)CNC(=O)[C@H](CCC(N)=O)NC(=O)[C@H](CC(=O)O)NC(=O)[C@@H](N)CO)C(C)C)[C@@H](C)O)C(=O)N1CCC[C@H]1C(=O)N[C@@H](CCC(=O)O)C(=O)N[C@@H](CCC(=O)O)C(=O)N[C@@H](Cc1ccc(O)cc1)C(=O)N[C@@H](CC(C)C)C(=O)N[C@@H](CC(=O)O)C(=O)N[C@@H](CC(=O)O)C(=O)N[C@@H](CCC(=O)O)C(=O)N[C@@H](CO)C(=O)O`, the inhibition in [3] is less than 5%; in test [4], less than 5%; in test [6], less than 5%; in the test listed under Homo sapiens [7], less than 5%; against Trypsin (Homo sapiens) [8], 20%; in test [9], 20%. In addition, the inhibition (in [10]; in test [11]; in test [12]; in test [13]; in [14]; against Trypsin (Homo sapiens) [15]) was less than 5% each time. The values for the inhibition in test [16], in test [17] and in [18] were 20%, less than 5% and less than 5%, respectively. Further, the outcome in the test filed under Homo sapiens [5] and in the test listed under Homo sapiens [2] was Active. In the test filed under Homo sapiens [1], the result was inactive. Also, in the test with Plasma, the Activity result is “Dose-dependent effect”.

The values are drawn from ChEMBL document CHEMBL1156495 (J Biol Chem, 2007).
